From US20080241085A1, “COMPOSITIONS FOR USE IN DARKENING THE SKIN” (priority 2007, published 2008)

Experiments:
Format in all cases: in vivo
human skin [1] = experiment: Visual evaluation of skin darkening after topical treatment of a human subject's arm; parameters: key to visual skin darkening, 2 WEEKS / visual skin darkening, 4 WEEKS / visual skin darkening, 8 WEEKS / visual skin darkening, 8 WKS + 1 WK / visual skin darkening, 8 WKS + 2 WKS / visual skin darkening, 8 WKS + 3 WKS: ++: Obvious visible tan-like color; +: Weak visible tan-like color; 0: No visible tan-like color; details: for visual skin darkening, 2 WEEKS: one volunteer, 2 weeks of treatment; for visual skin darkening, 8 WEEKS: 8 weeks of treatment; for induction of visible skin darkening (in words): 1% topical twice a day, six to eight weeks; for visual skin darkening, 8 WKS + 1 WK: 8 weeks topical treatment followed by 1 week without any treatment; for visual skin darkening, 8 WKS + 2 WKS: 8 weeks topical treatment followed by 2 weeks without any treatment; for visual skin darkening, 8 WKS + 3 WKS: 8 weeks topical treatment followed by 3 weeks without any treatment
Method: All the phospholipids were dissolved in an ethanol/propylene glycol vehicle (70/30, v/v) at the concentration of 1% of solid phospholipid powder. Preparations 1, 2 and 3 were tested for their ability to induce skin darkening in one human subject, with informed consent. One volunteer, Fitzpatrick skin type II, with no history of skin cancer, no skin disease or unusual skin reaction, and no topical treatments on the study sites (the upper and lower parts of the arm) within a period of 30 days before enrollment and during the treatment period, was treated with preparations 1-3. Different preparations were used in four different studies. Two studies used the upper part of the arm, and two other studies used the lower part of the arm, which were treated twice a day for six to eight weeks with 10 μl of test phospholipid solutions (1%) in ethanol: propylene glycol (70:30, v/v) vehicle, or with vehicle alone. No other products were used and no sun exposure occurred during the treatment period. Skin darkening was evaluated visually, and in some cases also by using a chromameter (ChromaMeter, Minolta, Osaka, Japan) and DRS (see Nguyen B. C., Br. J. Dermatol. 2003, 149(2):332-40). Measurements were taken at 4 and 8 weeks. The DRS instrument was assembled using a tungsten halogen light source (Model LS- 1, Ocean Optics, Dunedin, Fla., USA), Miniature Fiber Optic Spectrometer (Model USB2000, Ocean Optics, Dunedin, Fla., USA) and custom-designed bifurcated fiber optic probe (Multimode Fiber Optics Inc, East Hanover, N.J., USA). The scale used for reporting visual skin darkening is defined in the Table 1. The visual tan-like color was somewhat stronger on the upper arm, relative to lower arm, possibly because of slightly darker baseline color of the lower arm than the upper arm. The visual results are summarized in Table 2, including the fading time of the darker color, when treatment was terminated at 8 weeks and skin color was followed for additional three weeks.

human skin [2] = experiment: Melanin deposition by DRS after topical treatment of a human subject's arm; details: 4 weeks of treatment, 1% topical twice a day; vehicle 1.248
Method: (§1) All the phospholipids were dissolved in an ethanol/propylene glycol vehicle (70/30, v/v) at the concentration of 1% of solid phospholipid powder.
(§2) Preparations 1, 2 and 3 were tested for their ability to induce skin darkening in one human subject, with informed consent. One volunteer, Fitzpatrick skin type II, with no history of skin cancer, no skin disease or unusual skin reaction, and no topical treatments on the study sites (the upper and lower parts of the arm) within a period of 30 days before enrollment and during the treatment period, was treated with preparations 1-3. Different preparations were used in four different studies. Two studies used the upper part of the arm, and two other studies used the lower part of the arm, which were treated twice a day for six to eight weeks with 10 μl of test phospholipid solutions (1%) in ethanol: propylene glycol (70:30, v/v) vehicle, or with vehicle alone. No other products were used and no sun exposure occurred during the treatment period.
(§3) Skin darkening was evaluated visually, and in some cases also by using a chromameter (ChromaMeter, Minolta, Osaka, Japan) and DRS (see Nguyen B. C., Br. J. Dermatol. 2003, 149(2):332-40). Measurements were taken at 4 and 8 weeks. […]

human skin [3] = experiment: Skin colour L* by chromameter after topical treatment of a human subject's arm; details: 4 weeks of treatment, 1% topical twice a day; vehicle 67.28
Method: as §1, §2, §3

[4] = 1% in ethanol/propylene glycol (70/30), 10 μl twice a day, topical, arm
[5] = after termination of 8 weeks topical treatment

Row | Substance | visual skin darkening, 2 WEEKS (human skin [1]; [4]) | visual skin darkening, 8 WEEKS (human skin [1]; [4]) | induction of visible skin darkening (in words) (human skin [1]) | visual skin darkening, 8 WKS + 1 WK (human skin [1]) | visual skin darkening, 8 WKS + 2 WKS (human skin [1]) | visual skin darkening, 8 WKS + 3 WKS (human skin [1]) | Melanin (DRS, arbitrary units) (human skin [2]) | L* (Chromameter) (human skin [3]) | visual skin darkening, 4 WEEKS (human skin [1]; 1% in ethanol/propylene glycol (70/30), 10 μl twice a day, topical, arm, 4 weeks of treatment) | time at which darkening started to fade after termination of topical treatment (human skin [1]; [5]) | time the darkening remained visible after the end of the topical treatment (human skin [1]; [5]) | change of visible skin darkening with routine daily activities (e.g., after water and soap washing) (human skin [1]; during topical treatment)
1 | Lysophosphatidylcholine [Preparation 2] | + | ++ | induced visible skin darkening | ++ | + | 0 | 1.304 arbitrary units | 67.69 |  |  |  | 
2 | lysophosphatidylcholine [Preparation 1] | + | ++ | induced visible skin darkening | ++ | + | 0 | 1.274 arbitrary units | 68.27 | ++ |  |  | 
3 | lysophosphatidylcholine [LPC] |  |  |  |  |  |  |  |  |  | 14 to 20 days | at least 14 days | did not change
